Values joined by “and” are separate entries in the source; they are usually repeats but may differ in a detail not shown here. Identical values can stand only once. Like-named read-outs stand apart in the source and are kept apart here.

This experiment has as its system H460 cells. The experiment can be described thus: Cytotoxicity: anti-proliferation activity on H460 cells, multi-well Alamar Blue based assay. The class given is cell-based. The method, then: Cell growth in the presence and absence of the test compound was compared following a multi-well Alamar Blue based assay, and measured by a fluorescence plate reader at 550 nm excitation and 590 nm emission (see Biosource International Inc., Tech Application Notes, Use of Alamar Blue in the measurement of Cell Viability and Toxicity, Determining IC50). H460 cells (ATCC HTB-177 (NCl—H40), 4,000 cells/well/200 μl) were seeded in a 96 well plate in RPMI medium (Invitrogen Corporation, Carlsbad, Calif.). After 24 hours, these plates were divided into 3 groups—Control group, 2 h treatment group and 3 day treatment group. A test compound was added in a range of concentration to each plate in the treatment groups (2 h and 3 day). In the 2 h treatment group, after 2 h, the H460 cells were rinsed to remove the test compound, incubated for 3 days, and stained with AlamarBlue. The cells in the 3-day treatment group were incubated along with the test compound for 3 days, followed by staining with AlamarBlue. In the Control group, AlamarBlue was added to the plate at (i) day 0 and (ii) day 3 and the fluorescence emission measured to establish the control reading. In all the groups, the capacity of the cells to proliferate was measured 6 hours after addition of AlamarBlue by a fluorescence plate reader at 550 nm excitation and 590 nm emission.
On the technique in general: The colour change of resazurin is a common sign of viable cells or microbes.

Setting [1] is: read-out: GI50 (concentration required to inhibit cellular proliferation by 50%).
[2] abbreviates: read-out: GI90 (the source's name).
[3] abbreviates: Homo sapiens, NCI-H460, 72 h, H460 cells, 3 day incubation with compound, AlamarBlue, read-out: GI50 (concentration required to inhibit cellular proliferation by 50%).
Where [4] appears, read: Homo sapiens, NCI-H460, 72 h, H460 cells, 3 day incubation with compound, AlamarBlue, read-out: GI90 (the source's name).
[5] abbreviates: Homo sapiens, NCI-H460, H460 cells, 2 h treatment, rinsed, then incubated for 3 days, AlamarBlue, read-out: GI50 (concentration required to inhibit cellular proliferation by 50%).
[6] abbreviates: Homo sapiens, NCI-H460, H460 cells, 2 h treatment, rinsed, then incubated for 3 days, AlamarBlue, read-out: GI90 (the source's name).
[7] abbreviates: Homo sapiens, NCI-H460, 2 h, read-out: GI90.
Setting [8] is: Homo sapiens, NCI-H460, 72 h, read-out: GI50 (concentration required to inhibit cellular proliferation by 50%).
Setting [9] is: Homo sapiens, NCI-H460, 72 h, read-out: GI90.
The mark [10] stands for this setting: Homo sapiens, NCI-H460, read-out: GI50 (concentration required to inhibit cellular proliferation by 50%).

`COc1cccc2c1C(=O)c1c(O)c3c(c(O)c1C2=O)C[C@@](O)(C(C)=O)C[C@@H]3O[C@H]1CC(N2CCN(C(=O)OCc3cnc([N+](=O)[O-])n3C)CC2C#N)C(O)[C@H](C)O1` (some centres unmarked) [Compound 3]: under setting [1], the GI50 is 2.5 nM and 1.3 nM. Moreover, the IC90 under setting [2] was 7.90 nM and 4.00 nM.
As for `COc1cccc2c1C(=O)c1c(O)c3c(c(O)c1C2=O)C[C@@](O)(C(C)=O)C[C@@H]3O[C@@H]1CC(N2CCN(C(=O)OCc3ccc([N+](=O)[O-])o3)CC2C#N)C(O)[C@H](C)O1` (some centres unmarked) [Compound 5], the GI50 is, setting by setting: under setting [3], 1 nM; under setting [5], 3.2 nM. The IC90 reads like this: under setting [4], 4 nM; under setting [6], 10 nM.
Turning to `COc1cccc2c1C(=O)c1c(O)c3c(c(O)c1C2=O)C[C@@](O)(C(O)CO)C[C@@H]3O[C@H]1CC(N2CCN(C(=O)OC(C)(C)C)CC2C#N)[C@H](O)[C@H](C)O1` (some centres unmarked) [Compound 13], the IC90 under setting [7] came out at 50.1 nM and the IC90 under setting [9] was found to be 20 nM. Also, the GI50 runs as follows: under setting [8], 4 nM; under setting [10], 10 nM.
For `COCCOC(=O)N1CCN(C2C[C@H](O[C@H]3C[C@](O)(C(C)=O)Cc4c(O)c5c(c(O)c43)C(=O)c3c(OC)cccc3C5=O)O[C@H](C)C2O)C(C#N)C1` (some centres unmarked) [Compound 14], the IC90 is, setting by setting: under setting [7], 0.4 nM; under setting [9], 0.63 nM. For the same molecule, the GI50 reads like this: under setting [8], 0.2 nM; under setting [10], 0.2 nM.
On to `COc1cccc2c1C(=O)c1c(O)c3c(c(O)c1C2=O)C[C@@](O)(C(C)=O)C[C@@H]3O[C@H]1CC2C(OC3CN(C(=O)OCc4cnc([N+](=O)[O-])n4C)CCN32)[C@H](C)O1` (some centres unmarked) [Compound 28], for which the IC90 is, setting by setting: under setting [7], 0.1 nM; under setting [9], 1.26 nM. Moreover, the GI50 runs as follows: under setting [8], 0.4 nM; under setting [10], 0.03 nM.
On to `COc1cccc2c1C(=O)c1c(O)c3c(c(O)c1C2=O)C[C@@](O)(C(C)=O)C[C@@H]3O[C@H]1CC(N2CCN(C(=O)OCc3cnc([N+](=O)[O-])n3C)CC2)C(O)[C@H](C)O1` (some centres unmarked) [Compound 33], for which the GI50 under setting [1] is 20 nM and 10 nM. For the same molecule, the IC90 under setting [2] was 79 nM and 50 nM.
In the case of `COc1cccc2c1C(=O)c1c(O)c3c(c(O)c1C2=O)CC(O)(C(C)=O)CC3OC1CC(N2CCN(C(=O)OCC3c4ccccc4-c4ccccc43)CC2)C(O)C(C)O1` (centres unmarked) [Compound 44], the IC90 under setting [2] is reported as 501 nM.
Consider `COc1cccc2c1C(=O)c1c(O)c3c(c(O)c1C2=O)C[C@@](O)(C(C)=O)C[C@@H]3O[C@H]1CC(N2CCN(C(=O)C(F)(F)F)CC2)C(O)[C@H](C)O1` (some centres unmarked) [Compound 45], for which the IC90 under setting [2] was 1000 nM and 630 nM.
Still for that read-out and setting: the value for `COc1cccc2c1C(=O)c1c(O)c3c(c(O)c1C2=O)CC(O)(C(C)=O)CC3OC1CC(N2CCN(C(C)=O)CC2)C(O)C(C)O1` (centres unmarked) [Compound 46] was 158.50 nM and 100.00 nM.
Turning to `COc1cccc2c1C(=O)c1c(O)c3c(c(O)c1C2=O)C[C@@](O)(C(C)=O)C[C@@H]3O[C@H]1CC(N2CCN(C(=O)OCC(C)C)CC2)C(O)[C@H](C)O1` (some centres unmarked) [Compound 47], the IC90 by setting is: under setting [7], 398 nM; under setting [9], 100 nM. The GI50 by setting is: under setting [8], 20 nM; under setting [10], 126 nM.
For `COc1cccc2c1C(=O)c1c(O)c3c(c(O)c1C2=O)C[C@@](O)(C(C)=O)C[C@@H]3O[C@H]1CC(N2CCN(C(=O)CC(C)(C)C)CC2)C(O)[C@H](C)O1` (some centres unmarked) [Compound 48] the same measures were 398 nM, 200 nM, 63.1 nM and 141 nM.
Taken in the same sequence, the figures for `COc1cccc2c1C(=O)c1c(O)c3c(c(O)c1C2=O)C[C@@](O)(C(O)CO)C[C@@H]3O[C@H]1CC(N2CCN(C(=O)OC(C)(C)C)CC2)[C@H](O)[C@H](C)O1` (some centres unmarked) [Compound 49] were 158 nM, 100 nM, 20 nM and 63.1 nM.
With `COCCOC(=O)N1CCN2C(C1)OC1C2C[C@H](O[C@H]2C[C@](O)(C(=O)CO)Cc3c(O)c4c(c(O)c32)C(=O)c2c(OC)cccc2C4=O)O[C@@H]1C` (some centres unmarked) [Compound 50], the GI50 is 0.16 nM under setting [3] and 0.13 nM under setting [5]. In addition, the IC90 stood at 0.32 nM under setting [4] and 0.4 nM under setting [6].
Take `COc1cccc2c1C(=O)c1c(O)c3c(c(O)c1C2=O)C[C@@](O)(C(C)=O)C[C@@H]3O[C@H]1CC(NC(COCCOS(=O)(=O)c2ccc(C)cc2)OC)C(O)[C@H](C)O1` (some centres unmarked) [Compound 51]: the GI50 under setting [10] is 2.5 nM.
On the same count and under the same terms, the value for `COc1cccc2c1C(=O)c1c(O)c3c(c(O)c1C2=O)C[C@@](O)(C(C)=O)C[C@@H]3O[C@H]1CC(NC(C#N)COCCOS(=O)(=O)c2ccc(C)cc2)C(O)[C@H](C)O1` (some centres unmarked) [Compound 52] was 0.3 nM.
On to `COc1cccc2c1C(=O)c1c(O)c3c(c(O)c1C2=O)C[C@@](O)(C(C)=O)C[C@@H]3O[C@H]1CC(NC(C#N)COCCCl)C(O)[C@H](C)O1` (some centres unmarked) [Compound 53], for which the GI50 runs as follows: under setting [8], 2.5 nM; under setting [10], 15.8 nM.
Consider `COc1cccc2c1C(=O)c1c(O)c3c(c(O)c1C2=O)C[C@@](O)(C(C)=O)C[C@@H]3O[C@H]1CC(N2CCOCC2C#N)C(OC(=O)OCC(C)C)[C@H](C)O1` (some centres unmarked) [Compound 57], for which the IC90 reads like this: under setting [7], 316 nM; under setting [9], 10 nM. The GI50 by setting is: under setting [8], 1.58 nM; under setting [10], 125 nM.
For the molecule `COc1cccc2c1C(=O)c1c(O)c3c(c(O)c1C2=O)C[C@]1(O)C[C@@H]3O[C@H]2CC([C@H](O)[C@H](C)O2)N2CCOCC2OCC1=O` (some centres unmarked) [Compound 58], the GI50 is, setting by setting: under setting [3], 0.14 nM; under setting [5], 0.3 nM. In addition, the IC90 stood at 0.6 nM under setting [4] and 1 nM under setting [6].
Consider `COc1cccc2c1C(=O)c1c(O)c3c(c(O)c1C2=O)C[C@@](O)(C(C)=O)C[C@@H]3O[C@H]1CC(N2CCOCC2O)C(O)[C@H](C)O1` (some centres unmarked) [Compound 59], for which the IC90 reads like this: under setting [7], 1000 nM; under setting [9], 200 nM. For the same molecule, the GI50 was 50 nM under setting [8] and 200 nM under setting [10].
On to `COc1cccc2c1C(=O)c1c(O)c3c(c(O)c1C2=O)C[C@@](O)(C(=O)COC(=O)OCc1cnc([N+](=O)[O-])n1C)C[C@@H]3O[C@H]1CC(N2CCOCC2C#N)[C@H](O)[C@H](C)O1` (some centres unmarked) [Compound 60], for which the IC90 is, setting by setting: under setting [7], 2.5 nM; under setting [9], 0.2 nM. Also, the GI50 reads like this: under setting [8], 0.1 nM; under setting [10], 0.79 nM.

Source of the values: patent US20070060534A1, “Anthracycline analogs” (Threshold Pharmaceuticals, Inc., priority 2005, published 2007).
